Experimental data reported in patent publication US20030092691A1 (priority 2001, published 2003).

Test: Study of solubility of micronized progesterone in various oils (concentration at saturation)
Format: physicochemical
Conditions: in refined olive oil; one hour stirring at room temperature, filtered 0.45 μm
Protocol: The saturated solutions were then prepared as follows: The saturated solutions in each oil were maintained for one hour with stirring at room temperature, and were then filtered on a nylon filter syringe with a diameter of 25 mm, at 0.45 μm.

## CC(=O)[C@H]1CC[C@H]2[C@@H]3CCC4=CC(=O)CC[C@]4(C)[C@H]3CC[C@]12C [Micronized progesterone, progesterone]
  CONCENTRATION AT SATURATION: 19560 µg/mL
